From patent US12649712B2, “Indene compounds, pharmaceutical compositions thereof, and their therapeutic applications” (NucMito Pharmaceuticals Co. Ltd., priority 2020, dated 2026)

Tested on: alpha-smooth muscle actin (α-SMA)
Assay: Inhibition of TGF-β induced expression of alpha-smooth muscle actin (α-SMA) in CFSC cells, western blot
Assay type: cell-based
Conditions: compound at 10 μM, TGF-β (10 ng/mL), 24 hours, decrease in band intensity vs TGF-β only
Method: The ability of a compound to inhibit the TGF-β induced expression of alpha-smooth muscle actin (α-SMA) was evaluated in CCL4-treated fat storing (CFSC) cells. α-SMA is considered as a reliable marker of hepatic stellate cell activation and a key biomarker for liver fibrosis. See, e.g., Meng et al., Nat. Rev. Nephrol. 2016, 12, 325-38; Fabregat et al., FEBS J. 2016, 283, 2219-32.
CFSC cells maintained in a DMEM medium supplemented with 10% fetal bovine serum were seeded to 12-well culture dishes and grown to a confluence of 60-70% the next day. Culture was changed to a serum-free DMEM medium and treated with a compound at 10 μM in the presence of TGF-β (10 ng/mL). The cells were incubated for another 24 hours. All culture was maintained at 37° C. in 5% carbon dioxide.
A NP-40 lysate solution (50 mM Tris (pH 7.4), 150 mM NaCl, 1% NP-40) with EDTA free cocktail added was used to lyse the cells on ice for 30 min. The lysate was collected and centrifuged at 4° C. for 10 min at 12,000 rpm. The pellet was discarded and the supernatant was transferred to a new tube. Cell lysates were loaded with 5×loading buffer and boiled for 10 min, resolved by 10% SDS-polyacrylamide gel electrophoresis (SDS-PAGE), and transferred to PVDF membrane. The membrane was blocked with 5% skim milk in Tris-buffered saline and TWEEN® 20 (TBST; 10 mM Tris-HCl (pH 8.0), 150 mM NaCl, 0.1% TWEEN® 20) for 1 h at room temperature and then incubated with α-SMA and […] antibodies overnight at 4° C. After washing twice with TBST, the membrane was probed with a horseradish […] anti-immunoglobulin (1:5000 dilution) for 1 h at room temperature. After two subsequent rinses in TBST, immunoreactive products were reacted with ECL and visualized by a UVP CHEMSTUDIO™ imaging system. The western blotting bands are quantitated using an ImageJ software. The percentage of inhibition was obtained by calculating the percentage decrease in the band intensity compared to the one treated with TGF-β only.
The results are summarized in Table 1, wherein A represents a value no less of 90% inhibition, B represents a value less than 90% but no less than 80% inhibition, C represents a value less than 80% but no less than 70% inhibition, D represents a value less than 70% but no less than 50% inhibition, and E represents a value less than 50% with a compound at 10 μM.

Row | Structure (SMILES) | inhibition at 10 µM [%]
1 | CC1=C(CC(=O)O)c2cc(F)ccc2/C1=C\c1ccc(Oc2ccccc2)cc1 [Compound A1, 2-[(1Z)-5-Fluoro-2-methyl-1-[(4-phenoxyphenyl)methylidene]-1H-inden-3-yl]acetic acid] | > 90
2 | COc1ccc(Oc2ccc(/C=C3/C(C)=C(CC(=O)O)c4cc(F)ccc43)cc2)cc1 [Compound A2, 2-[(1Z)-5-Fluoro-1-{[4-(4-methoxyphenoxy)phenyl]methylidene}-2-methyl-1H-inden-3-yl]acetic acid] | > 90
3 | CC1=C(CC(=O)O)c2cc(F)ccc2/C1=C\c1ccc(Oc2cccc(C(F)(F)F)c2)cc1Cl [Compound A3, 2-[(1Z)-1-({2-Chloro-4-[3-(trifluoromethyl)phenoxy]phenyl}methylidene)-5-fluoro-2-methyl-1H-inden-3-yl]acetic acid] | > 90
4 | CC1=C(CC(=O)O)c2cc(F)ccc2/C1=C\c1ccc(Oc2ccc(C)cc2)cc1 [Compound A4, 2-[(1Z)-5-Fluoro-2-methyl-1-{[4-(4-methylphenoxy)phenyl]methylidene}-1H-inden-3-yl]acetic acid] | > 90
5 | CC1=C(CC(=O)O)c2cc(F)ccc2/C1=C\c1ccc(Oc2ccc(C(C)C)cc2)cc1 [Compound A5, 2-[(1Z)-5-Fluoro-2-methyl-1-({4-[4-(propan-2-yl)phenoxy]phenyl}methylidene)-1H-inden-3-yl]acetic acid] | > 90
6 | CC1=C(CC(=O)O)c2cc(F)ccc2/C1=C\c1ccc(Oc2ccc(Br)cc2)cc1 [Compound A6, 2-[(1Z)-1-{[4-(4-Bromophenoxy)phenyl]methylidene}-5-fluoro-2-methyl-1H-inden-3-yl]acetic acid] | > 90
7 | CC1=C(CC(=O)O)c2cc(F)ccc2/C1=C\c1ccc(Oc2cccc(C)c2)cc1 [Compound A7, 2-[(1Z)-5-Fluoro-2-methyl-1-{[4-(3-methylphenoxy)phenyl]methylidene}-1H-inden-3-yl]acetic acid] | > 90
8 | CC1=C(CC(=O)O)c2cc(F)ccc2/C1=C\c1ccc(Oc2cccc(C(F)(F)F)c2)cc1 [Compound A9, (Z)-2-(5-Fluoro-2-methyl-1-(4-(3-(trifluoromethyl)phenoxy)benzylidene)-1H-inden-3-yl)acetic acid] | > 90
9 | CCc1ccc(Oc2ccc(/C=C3/C(C)=C(CC(=O)O)c4cc(F)ccc43)cc2)cc1 [Compound A10, 2-[(1Z)-1-{[4-(4-Ethylphenoxy)phenyl]methylidene}-5-fluoro-2-methyl-1H-inden-3-yl]acetic acid] | > 90
10 | COc1ccc(Oc2ccc(/C=C3/C(C)=C(CC(=O)O)c4cc(F)ccc43)c(Cl)c2)cc1 [Compound A12, 2-[(1Z)-1-{[2-Chloro-4-(4-methoxyphenoxy)phenyl]methylidene}-5-fluoro-2-methyl-1H-inden-3-yl]acetic acid] | > 90
11 | COc1cc(Oc2ccc(C(C)C)cc2)ccc1/C=C1/C(C)=C(CC(=O)O)c2cc(F)ccc21 [Compound A13, 2-[(1Z)-5-Fluoro-1-({2-methoxy-4-[4-(propan-2-yl)phenoxy]phenyl}-methylidene)-2-methyl-1H-inden-3-yl]acetic acid] | < 50
12 | CC1=C(CC(=O)O)c2cc(F)ccc2/C1=C\c1ccc(Oc2ccc3ccccc3c2)cc1 [Compound A14, 2-[(1Z)-5-Fluoro-2-methyl-1-{[4-(naphthalen-2-yloxy)phenyl]methylidene}-1H-inden-3-yl]acetic acid] | > 90
13 | CC1=C(CC(=O)O)c2cc(F)ccc2/C1=C\c1ccc(Oc2ccc(C(C)C)cc2)cc1Cl [Compound A15, 2-[(1Z)-1-({2-Chloro-4-[4-(propan-2-yl)phenoxy]phenyl}methylidene)-5-fluoro-2-methyl-1H-inden-3-yl]acetic acid] | 80 to 90
14 | CC1=C(CC(=O)O)c2cc(F)ccc2/C1=C\c1ccc(Oc2ccc(F)cc2F)cc1 [Compound A16, 2-[(1Z)-1-{[4-(2,4-Difluorophenoxy)phenyl]methylidene}-5-fluoro-2-methyl-1H-inden-3-yl]acetic acid] | > 90
15 | CC1=C(CC(=O)O)c2cc(F)ccc2/C1=C\c1ccc(Oc2ccc(F)cc2Br)cc1 [Compound A17, 2-[(1Z)-1-{[4-(2-bromo-4-fluorophenoxy)phenyl]methylidene}-5-fluoro-2-methyl-1H-inden-3-yl]acetic acid] | > 90
16 | CC1=C(CC(=O)O)c2cc(F)ccc2/C1=C\c1ccc(Oc2cc(F)c(F)cc2F)cc1 [Compound A18, 2-[(1Z)-5-Fluoro-2-methyl-1-{[4-(2,4,5-trifluorophenoxy)phenyl]methylidene}-1H-inden-3-yl]acetic acid] | 70 to 80
17 | CC1=C(CCC(=O)O)c2ccccc2/C1=C\c1ccc(Oc2ccc(F)cc2)cc1 [Compound A19, 3-[(1Z)-1-{[4-(4-Fluorophenoxy)phenyl]methylidene}-2-methyl-1H-inden-3-yl]propanoic acid] | > 90
18 | CC1=C(CC(=O)O)c2cc(F)ccc2/C1=C\c1ccc(Oc2ccc(F)nc2)cc1 [Compound A20, 2-[(1Z)-5-Fluoro-1-({4-[(6-fluoropyridin-3-yl)oxy]phenyl}methylidene)-2-methyl-1H-inden-3-yl]acetic acid] | < 50
19 | CC1=C(CC(=O)O)c2cc(F)ccc2/C1=C\c1ccc(Oc2cnc(F)c(C)c2)cc1 [Compound A21, 2-[(1Z)-5-Fluoro-1-({4-[(6-fluoro-5-methylpyridin-3-yl)oxy]phenyl}-methylidene)-2-methyl-1H-inden-3-yl]acetic acid] | 80 to 90
20 | CC1=C(CC(=O)O)c2cc(F)ccc2/C1=C\c1ccc(Oc2cccc3ncccc23)cc1 [Compound A22, (Z)-2-(5-Fluoro-2-methyl-1-(4-(quinolin-5-yloxy)benzylidene)-1H-inden-3-yl)acetic acid] | 50 to 70
21 | CC1=C(CC(=O)NO)c2cc(F)ccc2/C1=C\c1ccc(Oc2ccccc2)cc1 [Compound A23, 2-[(1Z)-5-Fluoro-2-methyl-1-[(4-phenoxyphenyl)methylidene]-1H-inden-3-yl]-N-hydroxyacetamide] | > 90
22 | CC1=C(CC(=O)NO)c2cc(F)ccc2/C1=C\c1ccc(Oc2ccc(F)cc2)cc1 [Compound A24, 2-[(1Z)-5-Fluoro-1-{[4-(4-fluorophenoxy)phenyl]methylidene}-2-methyl-1H-inden-3-yl]-N-hydroxyacetamide] | 80 to 90
23 | CC1=C(CC(N)=O)c2cc(F)ccc2/C1=C\c1ccc(Oc2ccc(F)cc2)cc1 [Compound A25, 2-[(1Z)-5-Fluoro-1-{[4-(4-fluorophenoxy)phenyl]methylidene}-2-methyl-1H-inden-3-yl]acetamide] | 70 to 80
24 | CNC(=O)CC1=C(C)/C(=C/c2ccc(Oc3ccc(F)cc3)cc2)c2ccc(F)cc21 [Compound A26, 2-[(1Z)-5-Fluoro-1-{[4-(4-fluorophenoxy)phenyl]methylidene}-2-methyl-1H-inden-3-yl]-N-methylacetamide] | 70 to 80
25 | CC1=C(CC(=O)NCCO)c2cc(F)ccc2/C1=C\c1ccc(Oc2ccc(F)cc2)cc1 [Compound A27, 2-[(1Z)-5-Fluoro-1-{[4-(4-fluorophenoxy)phenyl]methylidene}-2-methyl-1H-inden-3-yl]-N-(2-hydroxyethyl)acetamide] | 80 to 90
